Results reported in ChEMBL document CHEMBL1201862, “PubChem BioAssay data set” (2004).
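Five compound concentrations were applied to cells in 96-well plates for 48 hours; endpoints were derived by simple linear interpolation of the resulting dose-response curve. GI50 marks 50% less growth.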 Active and inactive are the calls of the source. Rule as the data show it: active = GI50 up to about 1.1 µM and inactive = higher.

Assays:
Experiment in all cases: inhibition of tumour cell growth, NCI panel, 48 h
EKVX = system: EKVX
LOX IMVI = system: LOX IMVI
COLO 205 = system: COLO 205
SK-MEL-28 = system: SK-MEL-28
M19-MEL = system: M19-MEL
HCT-116 = system: HCT-116
RPMI-8226 = system: RPMI-8226
CCRF-CEM = system: CCRF-CEM
UACC-257 = system: UACC-257
SF-268 = system: SF-268
A498 = system: A498
K562 = system: K562
NCI-H460 = system: NCI-H460
ACHN = system: ACHN
786-0 = system: 786-0
OVCAR-3 = system: OVCAR-3
SK-MEL-2 = system: SK-MEL-2
SNB-78 = system: SNB-78
LXFL 529 = system: LXFL 529
NCI-H23 = system: NCI-H23
HCT-15 = system: HCT-15
DLD-1 = system: DLD-1
UACC-62 = system: UACC-62
SF-539 = system: SF-539
XF498 = system: XF498
DMS-114 = system: DMS-114
SNB-19 = system: SNB-19
UO-31 = system: UO-31
SK-MEL-5 = system: SK-MEL-5
HOP-92 = system: HOP-92
MOLT-4 = system: MOLT-4
Malme-3M = system: Malme-3M
OVCAR-5 = system: OVCAR-5
TK-10 = system: TK-10
HCC 2998 = system: HCC 2998
CAKI-1 = system: CAKI-1
HOP-62 = system: HOP-62
NCI-H226 = system: NCI-H226
SNB-75 = system: SNB-75
SW-620 = system: SW-620
OVCAR-4 = system: OVCAR-4
A549 = system: A549
U-251 = system: U-251
SR = system: SR
KM-20L2 = system: KM-20L2
HL-60 = system: HL-60
NCI-H522 = system: NCI-H522
OVCAR-8 = system: OVCAR-8
M14 = system: M14
DMS-273 = system: DMS-273
KM12 = system: KM12
SN12C = system: SN12C
RXF 393 = system: RXF 393
HT-29 = system: HT-29
SK-OV-3 = system: SK-OV-3
SF-295 = system: SF-295
IGROV-1 = system: IGROV-1

CC(C)OP(=O)(OC(C)C)/C(Cl)=N/Nc1ccc([N+](=O)[O-])cc1
GI50 (EKVX): > 100 µM (inactive)
GI50 (LOX IMVI): 44.9 µM (inactive)
GI50 (COLO 205): > 100 µM (inactive)
GI50 (SK-MEL-28): > 100 µM (inactive)
GI50 (M19-MEL): > 100 µM (inactive)
GI50 (HCT-116): > 100 µM (inactive)
GI50 (RPMI-8226): > 100 µM (inactive)
GI50 (CCRF-CEM): 59 µM (inactive)
GI50 (UACC-257): > 100 µM (inactive)
GI50 (SF-268): > 100 µM (inactive)
GI50 (A498): 24 µM (inactive)
GI50 (K562): 38.7 µM (inactive)
GI50 (NCI-H460): > 100 µM (inactive)
GI50 (ACHN): > 100 µM (inactive)
GI50 (786-0): > 100 µM (inactive)
GI50 (OVCAR-3): > 100 µM (inactive)
GI50 (SK-MEL-2): > 100 µM (inactive)
GI50 (SNB-78): 80.4 µM (inactive)
GI50 (LXFL 529): 34.7 µM (inactive)
GI50 (NCI-H23): > 100 µM (inactive)
GI50 (HCT-15): > 100 µM
GI50 (DLD-1): > 100 µM (inactive)
GI50 (UACC-62): 44.8 µM (inactive)
GI50 (SF-539): > 100 µM (inactive)
GI50 (XF498): > 100 µM (inactive)
GI50 (DMS-114): 81.8 µM (inactive)
GI50 (SNB-19): > 100 µM (inactive)
GI50 (UO-31): > 100 µM (inactive)
GI50 (SK-MEL-5): > 100 µM (inactive)
GI50 (HOP-92): 44.9 µM (inactive)
GI50 (MOLT-4): 53.6 µM (inactive)
GI50 (Malme-3M): > 100 µM (inactive)
GI50 (OVCAR-5): > 100 µM (inactive)
GI50 (TK-10): > 100 µM (inactive)
GI50 (HCC 2998): > 100 µM (inactive)
GI50 (CAKI-1): 97.3 µM (inactive)
GI50 (HOP-62): > 100 µM (inactive)
GI50 (NCI-H226): 0.778 µM (active)
GI50 (SNB-75): > 100 µM (inactive)
GI50 (SW-620): > 100 µM (inactive)
GI50 (OVCAR-4): > 100 µM (inactive)
GI50 (A549): > 100 µM (inactive)
GI50 (U-251): > 100 µM (inactive)
GI50 (SR): 92.3 µM (inactive)
GI50 (KM-20L2): 50.8 µM (inactive)
GI50 (HL-60): 43.7 µM (inactive)
GI50 (NCI-H522): > 100 µM (inactive)
GI50 (OVCAR-8): > 100 µM (inactive)
GI50 (M14): > 100 µM (inactive)
GI50 (DMS-273): > 100 µM (inactive)
GI50 (KM12): > 100 µM (inactive)
GI50 (SN12C): > 100 µM (inactive)

O=C1C2Nc3ccccc3SC2C(=O)N1c1ccc(Br)cc1 (stereo not given)
GI50 (EKVX): 23.4 µM (inactive)
GI50 (LOX IMVI): 27.9 µM (inactive)
GI50 (COLO 205): 55.5 µM (inactive)
GI50 (SK-MEL-28): 62.2 µM (inactive)
GI50 (M19-MEL): 57.1 µM (inactive)
GI50 (RPMI-8226): 13.1 µM (inactive)
GI50 (CCRF-CEM): > 10 µM (inactive)
GI50 (UACC-257): 26.5 µM (inactive)
GI50 (SF-268): 73.1 µM (inactive)
GI50 (A498): 26 µM (inactive)
GI50 (K562): 21.9 µM (inactive)
GI50 (NCI-H460): 47 µM (inactive)
GI50 (ACHN): 17.6 µM (inactive)
GI50 (786-0): 18.9 µM (inactive)
GI50 (OVCAR-3): 23.7 µM (inactive)
GI50 (SK-MEL-2): 17.7 µM (inactive)
GI50 (SNB-78): 14.2 µM (inactive)
GI50 (LXFL 529): 20.7 µM (inactive)
GI50 (NCI-H23): 36.5 µM (inactive)
GI50 (HCT-15): 78.7 µM
GI50 (DLD-1): 15.2 µM (inactive)
GI50 (UACC-62): 20 µM (inactive)
GI50 (SF-539): 26.4 µM (inactive)
GI50 (XF498): 35.6 µM (inactive)
GI50 (DMS-114): 13.5 µM (inactive)
GI50 (SNB-19): 34.3 µM (inactive)
GI50 (UO-31): 18.4 µM (inactive)
GI50 (SK-MEL-5): 16.2 µM (inactive)
GI50 (HOP-92): 10.9 µM (inactive)
GI50 (MOLT-4): 25.4 µM (inactive)
GI50 (Malme-3M): 27.2 µM (inactive)
GI50 (OVCAR-5): > 100 µM (inactive)
GI50 (TK-10): 28.8 µM (inactive)
GI50 (HCC 2998): 45.8 µM (inactive)
GI50 (RXF 393): 18.2 µM (inactive)
GI50 (HOP-62): 17.1 µM (inactive)
GI50 (NCI-H226): 7.24 µM (inactive)
GI50 (SNB-75): 24.5 µM (inactive)
GI50 (SW-620): 45 µM (inactive)
GI50 (OVCAR-4): 12.8 µM (inactive)
GI50 (HT-29): 36.1 µM (inactive)
GI50 (SK-OV-3): 15.6 µM (inactive)
GI50 (A549): 31.6 µM (inactive)
GI50 (SF-295): 26.6 µM (inactive)
GI50 (IGROV-1): 53.1 µM (inactive)
GI50 (KM-20L2): 33.2 µM (inactive)
GI50 (HL-60): > 10 µM (inactive)
GI50 (NCI-H522): 21.7 µM (inactive)
GI50 (OVCAR-8): 37.4 µM (inactive)
GI50 (M14): 33.5 µM (inactive)
GI50 (DMS-273): 21.6 µM (inactive)
GI50 (KM12): 28.2 µM (inactive)
GI50 (SN12C): 35.9 µM (inactive)
